{"source": "patent US9216186B2", "about": "“Combination of a pyrroloquinoline compound and an aminoglycodise antimicrobial agent” (HELPERBY THERAPEUTICS LIMITED, priority 2010, dated 2015)", "assay_type_in_all_cases": "cell-based", "key": {"[1]": {"test_system": "Staphylococcus aureus (Oxford)", "assay": "Minimum inhibitory concentration (MIC), broth dilution in Iso-Sensitest broth", "conditions": "S. aureus (Oxford), overnight incubation at 37° C.", "procedure": "Staphylococcus aureus (Oxford); Gram positive; Reference strain.\nIso-Sensitest Broth (Oxoid) was used for evaluation of Minimum inhibitory concentrations (MICs), susceptibility tests for antimicrobials, and efficacy of antimicrobial combinations.\nThe stock solution of each drug was diluted to required concentrations. 10 μl of drug from each dilution was taken and mixed with 290 μl of culture with 10^6 of bacterial cells on a 96-well plate to make the final required concentrations (μg/ml).\nThe plates were read at 405 nm using a 96-well plate reader Elx 800 equipped with a 405-nm filter (Bio-Tek) before and after incubation. The MIC values of the drugs were determined by comparison of the optical density reading between prior and post drug treatment."}, "[2]": {"test_system": "Staphylococcus aureus (Oxford)", "assay": "Minimum bactericidal concentration (MBC), subculture on drug-free TSA plates", "conditions": "S. aureus (Oxford)"}, "[3]": {"test_system": "stationary phase Pseudomonas aeruginosa (clinical isolate)", "assay": "Kill curve by CFU counts against stationary phase bacteria", "procedure": "(§1) Pseudomonas aeruginosa (clinical isolate).\nA single colony of Ps. aeruginosa was inoculated in 10 ml of Nutrient Broth No. 2 (NB) (Oxoid) which was incubated overnight at 37° C. with continuous shaking at 120 rpm. 200 μl of the overnight culture was added into a 500 ml screw-cap which contained 100 ml of NB. The 100 ml culture was incubated at 37° C. with continuous shaking for 5 to 6 days. The cultures were diluted with phosphate buffered saline to 10^7 CFU/ml.\nThe activities of the combination and each of the individual drugs were measured by CFU counts at 0, 2, 4, 6 and 8 hours. CFU counts were performed as follows: from serial 10-fold dilutions of the experimental cultures, 100 μl samples were added to triplicate plates of nutrient agar plates (Oxoid). Colony forming units (CFU) were counted after incubation of the plates at 37° C. for 24 hours."}, "[4]": {"test_system": "log phase Pseudomonas aeruginosa (clinical isolate)", "assay": "Chequerboard analysis of log phase bacteria, optical density at 405 nm / MIC", "conditions": "for MIC: single agent, range up to 64 μg/ml HT61, 16 μg/ml tobramycin", "procedure": "as §1\nP. aeruginosa was grown in 10 ml of NB overnight at 37° C. with continuous shaking at 120 rpm. The overnight cultures were diluted 1000× with iso-sensitest broth to obtain a cell suspension containing the bacteria at 10^6 CFU/ml. The cultures were incubated at 37° C. with shaking for 1-2 hours served as log-phase cultures. Viability of the bacteria was estimated by colony forming unit (CFU) counts.\nThe two drugs were serially diluted twofold to 0 and combined in a pattern of an array.\nThe optical density of the bacterial cells was read at 405 nm using a plate reader (Bio TEK). The MIC concentration was determined as the lowest concentration of drug which inhibits the bacterial growth. The MIC values of the drugs were determined by comparison of the optical density reading between prior and post drug treatment."}, "[5]": {"test_system": "clinically latent microorganisms", "assay": "Screening of compounds for ability to kill clinically latent microorganisms (method of WO2000028074)", "conditions": "observed by the Applicant using the method of WO2000028074", "excerpt": "International Patent Application, Publication Number WO2000028074 describes a method of screening compounds to determine their ability to kill clinically latent microorganisms. […] This observation has necessitated the development of novel antimicrobials which may be used to kill clinically latent microorganisms.\nBy way of example, WO2000028074 describes a suitable method of screening compounds to determine their ability to kill clinically latent microorganisms. A typical method may include the following steps: • (1) growing a bacterial culture to stationary phase; • (2) treating the stationary phase culture with one or more antimicrobial agents at a concentration and or time sufficient to kill growing bacteria, thereby selecting a phenotypically resistant sub-population; • (3) incubating a sample of the phenotypically resistant subpopulation with one or more test compounds or agents; and • (4) assessing any antimicrobial effects against the phenotypically resistant subpopulation."}, "[6]": {"conditions": "Staphylococcus aureus, read-out: MIC"}}, "note": "Several values for one entry are separate records, joined by “and”; a condition that tells them apart may be missing. Equal values may be shown once. Where a name gives a salt, the structure may show the parent alone. Read-outs that look alike come from different tables or passages of the source.", "data": [{"molecule": "Cc1nc2ccc(Oc3ccccc3)cc2c2c1CCN2CCc1ccccc1", "note": "[4-methyl-8-phenoxy-1-(2-phenylethyl)-2,3-dihydro-1H-pyrrolo[3,2-c]quinoline]", "values": [{"measurement": "MIC", "setting": "[1]; [6]", "value": 8, "unit": "mg/L"}, {"measurement": "MBC", "setting": "[2]; Staphylococcus aureus, read-out: MBC", "value": 16, "unit": "mg/L"}]}, {"molecule": "Cc1nc2ccc(Oc3ccccc3)cc2c2c1CCN2CCc1ccccc1", "note": "[HT61, 4-methyl-8-phenoxy-1-(2-phenylethyl)-2,3-dihydro-1H-pyrrolo[3,2-c]quinoline mesylate]", "values": [{"measurement": "activity alone against stationary phase P. aeruginosa", "setting": "[3]; alone at 32, 16 and 8 μg/ml", "value": "slight or no activities"}, {"measurement": "optical density at 405 nm", "setting": "[4]; HT61 1 μg/ml alone (tobramycin 0), mesylate", "value": "3.16 and 3.08"}, {"measurement": "optical density at 405 nm", "setting": "[4]; HT61 2 μg/ml alone (tobramycin 0), mesylate", "value": "3.12 and 3.11"}, {"measurement": "optical density at 405 nm", "setting": "[4]; HT61 4 μg/ml alone (tobramycin 0), mesylate", "value": "3.11 and 3.10"}, {"measurement": "optical density at 405 nm", "setting": "[4]; HT61 8 μg/ml alone (tobramycin 0), mesylate", "value": "3.15 and 3.10"}, {"measurement": "optical density at 405 nm", "setting": "[4]; HT61 16 μg/ml alone (tobramycin 0), mesylate", "value": "3.11 and 3.07"}, {"measurement": "optical density at 405 nm", "setting": "[4]; HT61 32 μg/ml alone (tobramycin 0), mesylate", "value": "3.09 and 3.04"}, {"measurement": "optical density at 405 nm", "setting": "[4]; HT61 64 μg/ml alone (tobramycin 0), mesylate", "value": "3.01 and 3.09"}, {"measurement": "MIC", "setting": "[4]; log phase P. aeruginosa", "value": "no MIC"}, {"measurement": "MIC of HT61 in combination with tobramycin", "setting": "[4]; with tobramycin at 0.5 μg/ml, log phase P. aeruginosa", "value": 16, "unit": "mg/L"}]}, {"molecule": "NC[C@H]1O[C@H](O[C@H]2[C@H](O)[C@@H](O[C@H]3O[C@H](CO)[C@@H](O)[C@H](N)[C@H]3O)[C@H](N)C[C@@H]2N)[C@H](O)[C@@H](O)[C@@H]1O", "note": "[Kanamycin]", "values": [{"measurement": "MIC", "setting": "[1]; [6]", "value": 8, "unit": "mg/L"}]}, {"molecule": "NC[C@H]1O[C@H](O[C@H]2[C@H](O)[C@@H](O[C@H]3O[C@H](CO)[C@@H](O)[C@H](N)[C@H]3O)[C@H](N)C[C@@H]2N)[C@H](N)C[C@@H]1O", "note": "[Tobramycin]", "values": [{"measurement": "activity alone against stationary phase P. aeruginosa", "setting": "[3]; alone at 2 and 1 μg/ml", "value": "very low or no activities"}, {"measurement": "MIC", "setting": "[4]; Pseudomonas aeruginosa, log phase P. aeruginosa, read-out: MIC", "value": 1, "unit": "mg/L"}, {"measurement": "optical density at 405 nm", "setting": "[4]; tobramycin 0.01563 μg/ml alone (HT61 0)", "value": "3.25 and 3.14"}, {"measurement": "optical density at 405 nm", "setting": "[4]; tobramycin 0.03125 μg/ml alone (HT61 0)", "value": "3.24 and 3.18"}, {"measurement": "optical density at 405 nm", "setting": "[4]; tobramycin 0.0625 μg/ml alone (HT61 0)", "value": "3.16 and 3.09"}, {"measurement": "optical density at 405 nm", "setting": "[4]; tobramycin 0.125 μg/ml alone (HT61 0)", "value": "3.15 and 3.08"}, {"measurement": "optical density at 405 nm", "setting": "[4]; tobramycin 0.25 μg/ml alone (HT61 0)", "value": "3.04 and 2.97"}, {"measurement": "optical density at 405 nm", "setting": "[4]; tobramycin 0.5 μg/ml alone (HT61 0)", "value": "2.19 and 2.18"}, {"measurement": "optical density at 405 nm", "setting": "[4]; tobramycin 1 μg/ml alone (HT61 0)", "value": 0.46}, {"measurement": "optical density at 405 nm", "setting": "[4]; tobramycin 2 μg/ml alone (HT61 0)", "value": "0.44 and 0.45"}, {"measurement": "optical density at 405 nm", "setting": "[4]; tobramycin 4 μg/ml alone (HT61 0)", "value": "0.47 and 0.50"}, {"measurement": "optical density at 405 nm", "setting": "[4]; tobramycin 8 μg/ml alone (HT61 0)", "value": 0.44}]}, {"molecule": "CC[C@H]1OC(=O)[C@H](C)[C@@H](O[C@H]2C[C@@](C)(OC)[C@@H](O)[C@H](C)O2)[C@H](C)[C@@H](O[C@@H]2O[C@H](C)C[C@H](N(C)C)[C@H]2O)[C@](C)(O)C[C@@H](C)CN(C)[C@H](C)[C@@H](O)[C@]1(C)O", "note": "[azithromycin]", "values": [{"measurement": "activity against clinically latent microorganisms", "setting": "[5]", "value": "little or no activity"}]}, {"molecule": "CC(=O)NC[C@H]1CN(c2ccc(N3CCOCC3)c(F)c2)C(=O)O1", "note": "[linezolid]", "values": [{"measurement": "activity against clinically latent microorganisms", "setting": "[5]", "value": "little or no activity"}]}, {"molecule": "C/C(=C\\C(=O)OCCCCCCCCC(=O)O)C[C@@H]1OC[C@H](C[C@@H]2O[C@H]2[C@@H](C)[C@H](C)O)[C@@H](O)[C@H]1O", "note": "[mupirocin]", "values": [{"measurement": "activity against clinically latent microorganisms", "setting": "[5]", "value": "little or no activity"}]}, {"molecule": "Gentamicin", "values": [{"measurement": "MIC", "setting": "[1]", "value": 1, "unit": "mg/L"}, {"measurement": "MBC", "setting": "[2]", "value": 8, "unit": "mg/L"}]}, {"molecule": "co-amoxiclav", "values": [{"measurement": "activity against clinically latent microorganisms", "setting": "[5]", "value": "little or no activity"}]}]}
